Data taken from patent publication US8759334B2, “Compounds useful for the treatment of metabolic and inflammatory diseases” (Galapagos NV, priority 2011, dated 2014).

Biological target: T1, GPR43 (Homo sapiens, UniProt O15552)
T1 construct: expressed in transfected cells
T1 sequence (O15552 1-330): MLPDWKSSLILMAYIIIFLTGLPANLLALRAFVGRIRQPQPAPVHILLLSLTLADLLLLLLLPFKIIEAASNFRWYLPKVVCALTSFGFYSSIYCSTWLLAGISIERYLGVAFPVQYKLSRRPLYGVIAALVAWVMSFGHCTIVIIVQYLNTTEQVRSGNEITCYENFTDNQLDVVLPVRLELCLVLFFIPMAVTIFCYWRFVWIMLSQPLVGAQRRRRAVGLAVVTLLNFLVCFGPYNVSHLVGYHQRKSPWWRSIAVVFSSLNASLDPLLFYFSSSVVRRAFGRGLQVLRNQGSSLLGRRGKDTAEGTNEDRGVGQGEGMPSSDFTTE
Test: Calcium mobilization assay without probenecid
Assay type: cell-based
Details: GPR43 stably expressing cells, triggered with sodium acetate at EC80, read-out: GPR43 assay without probenicid IC50
Protocol: The following assay can be used for determination of GPR43 activation. The assay measures intracellular calcium release induced by activation of GPR43. On day 1, GPR43 stably expressing cells were detached with mild trypsinization (Trypsin, 0.25% with EDTA 4Na, 5× diluted in PBS) centrifuged at 1000 rpm for 5 min and resuspended at 6.000 cells/25 μL medium (DMEM supplemented with 10% FBS, 10 μg/mL puromycin and 1% Pen/Strep). The cells were distributed in poly-D-lysine coated 384 well plates (black with clear bottom, 25 μL/well) and incubated overnight at 37° C. 10% CO2. On day 2, 25 μL of a fluorescent Ca^2+ indicator (Calcium 4 assay; Molecular Devices) was added on top of the cells and incubated for 2 h at 37° C. Subsequently, compounds at increasing concentration (10 μL/well) were added to the plate and incubated for 15 min at 37° C. Finally the cells were triggered with sodium acetate at EC80 concentration (concentration which gives 80% of the activity of the GPR43) and the Ca-flux was measured simultaneously to the trigger injection on a fluorescence plate reader (FlexStation3), this measures the antagonist activity of the compounds. To measure agonist activity of the compounds, compound was added to the well and the Ca-flux was measured simultaneously to the injection of compound.

Structure (SMILES)	IC50 [nM]
CC1(C(=O)NCc2ccc(Cl)cc2)CCN1C(=O)Cc1ccc(Cl)cc1Cl (stereo not drawn) [Compound 1, 1-[2-(2,4-Dichloro-phenyl)-acetyl]-2-methyl-azetidine-2-carboxylic acid 4-chloro-benzylamide]	101 to 500
Cc1cc(C)cc(CC(=O)N2CCC2(C)C(=O)N(C)Cc2ccc(Cl)cc2)c1 (stereo not drawn) [Compound 3, 1-[2-(3,5-Dimethyl-phenyl)-acetyl]-2-methyl-azetidine-2-carboxylic acid (4-chloro-benzyl)-methyl-amide]	> 1000
CN(Cc1ccc(Cl)cc1)C(=O)C1(C)CCN1C(=O)Cc1cccc(I)c1 (stereo not drawn) [Compound 8, 1-[2-(3-iodo-phenyl)-acetyl]-2-methyl-azetidine-2-carboxylic acid (4-chloro-benzyl)-methyl-amide]	501 to 1000
CN(Cc1ccc(Cl)cc1)C(=O)C1(C)CCN1C(=O)Cc1csc2ccccc12 (stereo not drawn) [Compound 13, 1-(2-Benzo[b]thiophen-3-yl-acetyl)-2-methyl-azetidine-2-carboxylic acid (4-chloro-benzyl)-methyl-amide]	101 to 500
CN(Cc1ccc(Cl)cc1)C(=O)C1(C)CCN1C(=O)Cc1ccc2ccccc2c1 (stereo not drawn) [Compound 14, 2-Methyl-1-(2-naphthalen-2-yl-acetyl)-azetidine-2-carboxylic acid (4-chloro-benzyl)-methyl-amide]	501 to 1000

Biological target: T1, GPR43
Test: Calcium mobilization assay with probenecid
Assay type: cell-based
Details: GPR43 stably expressing cells; triggered with sodium acetate at EC80; 2.5 mM probenecid; read-out: GPR43 assay with probenicid IC50
Outline: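 […] being added at rising concentrations to a GPR43 stable line. Before this, cells were dye-loaded (Calcium 4 with 2.5 mM probenecid) for 2 h at 37 °C after overnight plating.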

Structure (SMILES)	IC50 [nM]
CCCC1(C(=O)N(CCCC(=O)NS(C)(=O)=O)Cc2cccc(Cl)c2)CCN1C(=O)c1csc2ccccc12 (stereo not drawn) [Compound 232, 1-(benzo[b]thiophene-3-carbonyl)-N-(3-chlorobenzyl)-N-(4-(methylsulfonamido)-4-oxobutyl)-2-propylazetidine-2-carboxamide]	101 to 500
CC(C)C1(C(=O)N(CCCC(=O)NS(C)(=O)=O)Cc2cccc(Cl)c2)CCN1C(=O)c1csc2ccccc12 (stereo not drawn) [Compound 233, 1-(benzo[b]thiophene-3-carbonyl)-N-(3-chlorobenzyl)-2-isopropyl-N-(4-(methylsulfonamido)-4-oxobutyl)azetidine-2-carboxamide]	101 to 500
CC1(C(=O)N(CCCC(=O)NS(C)(=O)=O)c2ccc(Cl)cc2)CCN1C(=O)c1csc2ccccc12 (stereo not drawn) [Compound 234, 1-(benzo[b]thiophene-3-carbonyl)-N-(4-chlorophenyl)-2-methyl-N-(4-(methylsulfonamido)-4-oxobutyl)azetidine-2-carboxamide]	0.01 to 100
CC1(C(=O)N(CCCC(=O)O)Cc2ccc(Cl)cc2)CCN1C(=O)Oc1ccccc1Br (stereo not drawn) [Compound 235, 4-(1-((2-bromophenoxy)carbonyl)-N-(4-chlorobenzyl)-2-methylazetidine-2-carboxamido)butanoic acid]	> 1000
CC1(C(=O)N(CCCC(=O)O)Cc2ccc(Cl)cc2)CCN1C(=O)Oc1cc(C(F)(F)F)ccc1Cl (stereo not drawn) [Compound 236, 4-(1-((2-chloro-5-(trifluoromethyl)phenoxy)carbonyl)-N-(4-chlorobenzyl)-2-methylazetidine-2-carboxamido)butanoic acid]	> 1000
CC1(C(=O)N(CCCC(=O)O)Cc2ccc(Cl)cc2)CCN1C(=O)n1ccc2ccccc21 (stereo not drawn) [Compound 237, 4-(N-(4-chlorobenzyl)-1-(1H-indole-1-carbonyl)-2-methylazetidine-2-carboxamido)butanoic acid]	> 1000
CC1(C(=O)N(CCCC(=O)O)Cc2ccc(Cl)cc2)CCN1C(=O)Oc1ccc(Cl)cc1Cl (stereo not drawn) [Compound 238, 4-(N-(4-chlorobenzyl)-1-((2,4-dichlorophenoxy)carbonyl)-2-methylazetidine-2-carboxamido)butanoic acid]	> 1000
CC1(C(=O)N(CCCC(=O)O)Cc2ccc(Cl)cc2)CCN1C(=O)Oc1ccc(F)cc1Cl (stereo not drawn) [Compound 239, 4-(1-((2-chloro-4-fluorophenoxy)carbonyl)-N-(4-chlorobenzyl)-2-methylazetidine-2-carboxamido)butanoic acid]	> 1000
CC1(C(=O)N(CCCC(=O)NS(C)(=O)=O)Cc2ccc(Cl)cc2)CCN1C(=O)c1csc2ccccc12 (stereo not drawn) [Compound 240, 1-(benzo[b]thiophene-3-carbonyl)-N-(4-chlorobenzyl)-2-methyl-N-(4-(methylsulfonamido)-4-oxobutyl)azetidine-2-carboxamide]	101 to 500
CS(=O)(=O)NC(=O)CCCN(Cc1cccc(Cl)c1)C(=O)C1(Cc2ccc(F)cc2)CCN1C(=O)c1csc2ccccc12 (stereo not drawn) [Compound 241, 1-(benzo[b]thiophene-3-carbonyl)-N-(3-chlorobenzyl)-2-(4-fluorobenzyl)-N-(4-(methylsulfonamido)-4-oxobutyl)azetidine-2-carboxamide]	501 to 1000
COc1cccc(CC2(C(=O)N(CCCC(=O)NS(C)(=O)=O)Cc3cccc(Cl)c3)CCN2C(=O)c2csc3ccccc23)c1 (stereo not drawn) [Compound 242, 1-(benzo[b]thiophene-3-carbonyl)-N-(3-chlorobenzyl)-2-(3-methoxybenzyl)-N-(4-(methylsulfonamido)-4-oxobutyl)azetidine-2-carboxamide]	501 to 1000
CS(=O)(=O)NC(=O)CCCN(Cc1cccc(Cl)c1)C(=O)C1(Cc2ccccc2F)CCN1C(=O)c1csc2ccccc12 (stereo not drawn) [Compound 243, 1-(benzo[b]thiophene-3-carbonyl)-N-(3-chlorobenzyl)-2-(2-fluorobenzyl)-N-(4-(methylsulfonamido)-4-oxobutyl)azetidine-2-carboxamide]	501 to 1000
CC[C@]1(C(=O)N(CCCS(N)(=O)=O)[C@@H](C)c2ccc(Cl)cc2)CCN1C(=O)c1csc2ccccc12 [Compound 244, (R)-1-(benzo[b]thiophene-3-carbonyl)-N-((S)-1-(4-chlorophenyl)ethyl)-2-ethyl-N-(3-sulfamoylpropyl)azetidine-2-carboxamide]	> 1000
CC[C@@]1(C(=O)N(CCCS(N)(=O)=O)[C@@H](C)c2ccc(Cl)cc2)CCN1C(=O)c1csc2ccccc12 [Compound 245, (S)-1-(benzo[b]thiophene-3-carbonyl)-N-((S)-1-(4-chlorophenyl)ethyl)-2-ethyl-N-(3-sulfamoylpropyl)azetidine-2-carboxamide]	101 to 500
CCC1(C(=O)N(CCCS(N)(=O)=O)c2ccc(Cl)cc2)CCN1C(=O)c1csc2ccccc12 (stereo not drawn) [Compound 246, 1-(benzo[b]thiophene-3-carbonyl)-N-(4-chlorophenyl)-2-ethyl-N-(3-sulfamoylpropyl)azetidine-2-carboxamide]	101 to 500
COc1ccccc1CC1(C(=O)N(CCCC(=O)O)Cc2cccc(Cl)c2)CCN1C(=O)c1csc2ccccc12 (stereo not drawn) [Compound 247, 4-(1-(benzo[b]thiophene-3-carbonyl)-N-(3-chlorobenzyl)-2-(2-methoxybenzyl)azetidine-2-carboxamido)butanoic acid]	> 1000
CC1(C(=O)N(CCCC(=O)O)c2cccc(Cl)c2)CCN1C(=O)c1csc2ccccc12 (stereo not drawn) [Compound 248, 4-(1-(benzo[b]thiophene-3-carbonyl)-N-(3-chlorophenyl)-2-methylazetidine-2-carboxamido)butanoic acid]	101 to 500
CC1(C(=O)N(CCCC(=O)O)c2ccc(Cl)nc2)CCN1C(=O)c1csc2ccccc12 (stereo not drawn) [Compound 249, 4-(1-(benzo[b]thiophene-3-carbonyl)-N-(6-chloropyridin-3-yl)-2-methylazetidine-2-carboxamido)butanoic acid]	> 1000
CC1(C(=O)N(CCCC(=O)O)c2ccc(Cl)cn2)CCN1C(=O)c1csc2ccccc12 (stereo not drawn) [Compound 250, 4-(1-(benzo[b]thiophene-3-carbonyl)-N-(5-chloropyridin-2-yl)-2-methylazetidine-2-carboxamido)butanoic acid]	501 to 1000
CC1(C(=O)N(CCCC(=O)O)c2cccc(C(F)(F)F)c2)CCN1C(=O)c1csc2ccccc12 (stereo not drawn) [Compound 251, 4-(1-(benzo[b]thiophene-3-carbonyl)-2-methyl-N-(3-(trifluoromethyl)phenyl)azetidine-2-carboxamido)butanoic acid]	101 to 500
CC1(C(=O)N(CCCC(=O)O)c2cc(Cl)ccn2)CCN1C(=O)c1csc2ccccc12 (stereo not drawn) [Compound 252, 4-(1-(benzo[b]thiophene-3-carbonyl)-N-(4-chloropyridin-2-yl)-2-methylazetidine-2-carboxamido)butanoic acid]	501 to 1000
CC1(C(=O)N(CCCC(=O)O)c2ccccn2)CCN1C(=O)c1csc2ccccc12 (stereo not drawn) [Compound 253, 4-(1-(benzo[b]thiophene-3-carbonyl)-2-methyl-N-(pyridin-2-yl)azetidine-2-carboxamido)butanoic acid]	> 1000
